{
  "source": "patent US20200261543A1",
  "about": "“COMBINATION THERAPY FOR TREATMENT OF BONE DISORDERS” (University of Copenhagen, priority 2017, published 2020)",
  "key": {"[1]": {"system": "serum C-terminal cross-linking telopeptide of type I collagen (CTX)", "assay": "Serum CTX (bone resorption) after s.c. GLP-1, Example 5", "assay_type": "in vivo, human", "conditions": "GLP-1 1.5 nmol/kg s.c.", "protocol": "Eight healthy young people were enrolled (five male, three female). […] Participants arrived in the morning after an overnight fast. Blood samples were collected before (−15 and 0 min) and after injection (15, 30, 45, 60, 90 and 120 min). After last participant's last visit, bone resorption was determined by measurements of serum C-terminal cross-linking telopeptide of type I collagen (CTX; IDS Immunodiagnostic Systems GmbH, Frankfurt am Main, Germany)."}, "[2]": {"conditions": "in vivo; cited from earlier work"}, "[3]": {"system": "serum C-terminal cross-linking telopeptide of type I collagen (CTX)", "assay": "Serum CTX (bone resorption) after s.c. injection in healthy young men, Example 1/3 study", "assay_type": "in vivo, human", "conditions": "for reduction in bone resorption (CTX): 200 μg GIP and 800 μg GLP-2, Example 1 as summarised in Example 2; for time of maximum effect on bone resorption (CTX): GIP 200 μg or GLP-2 800 μg s.c.", "protocol": "(§1) Eight healthy young men were enrolled. The study included three study days in randomised order (with a minimum of 1 week washout between study days) where human GIP (200 μg), human GLP-2 (800 μg), or placebo was injected subcutaneously. Participants arrived in the morning (fasted overnight) and received the injection around 8.30 a.m. Blood samples were collected before (−25 and −10 min) and every 30 minutes after injection (30, 60, 90, 120, 180 and 240 min). After last participant's last visit, bone resorption was determined by measurements of serum C-terminal cross-linking telopeptide of type I collagen (CTX; IDS Immunodiagnostic Systems GmbH, Frankfurt am Main, Germany)\n(§2) Eight healthy young men were enrolled, and the study was conducted as outlined in Example 1. After last participant's last visit, bone resorption was determined by measurements of CTX (IDS Immunodiagnostic Systems GmbH, Frankfurt am Main, Germany) and bone formation was determined by measurements of serum N-terminal propeptide of type 1 collagen (P1NP; IDS Immunodiagnostic Systems GmbH, Frankfurt am Main, Germany). In addition, serum concentration of parathyroid hormone (PTH; IDS Immunodiagnostic Systems GmbH, Frankfurt am Main, Germany) was measured."}, "[4]": {"system": "serum N-terminal propeptide of type 1 collagen (P1NP)", "assay": "Serum P1NP (bone formation) after s.c. injection, Example 3", "assay_type": "in vivo, human", "conditions": "for time of maximum effect on bone formation (P1NP): GIP 200 μg or GLP-2 800 μg s.c.", "protocol": "as §1, §2"}, "[5]": {"system": "parathyroid hormone (PTH)", "assay": "Serum PTH after s.c. injection, Example 3", "assay_type": "in vivo, human", "conditions": "for time of maximum effect on PTH: GIP 200 μg or GLP-2 800 μg s.c.; for PTH level at maximum effect: 15 min after injection", "protocol": "as §1, with “Blood samples were collected before (−25 and −10 min) and every 30 minutes after injection (30, 60, 90, 120, 180 and 240 min).” left out\nas §2"}, "CTX": {"system": "CTX", "assay": "CTX (bone resorption) after s.c. injection alone or in combination, Example 2/4 study", "assay_type": "in vivo, human", "conditions": "Example 4; for time of maximum effect on bone resorption (CTX): GIP 100 μg, GLP-2 400 μg or both s.c.", "protocol": "(§3) Ten healthy young men are enrolled and the study includes four study days in randomised order (with a minimum of 1 week washout between study days) where human GIP (100 μg), human GLP-2 (400 μg), GIP+GLP-2 (100 μg+400 μg), or placebo are injected subcutaneously. The participants arrive in the morning (fasted overnight) and receive the injection around 8.30 a.m. Blood samples are collected before (−25 and −10) and every 30 minutes after injection (30, 60, 90, 120, 180 and 240 min) injection. After last participant's last visit, samples are analysed for concentrations of bone resorption markers (CTX).\nas §2, with “Ten” for “Eight”, “are enrolled” for “were enrolled,”, “2.” for “1.”, “measured. The doses of GIP and GLP-2 were selected as discussed in example 2.” for “measured.”"}, "[6]": {"system": "serum N-terminal propeptide of type 1 collagen (P1NP)", "assay": "Serum P1NP (bone formation) after s.c. injection alone or in combination, Example 4", "assay_type": "in vivo, human", "conditions": "for time of maximum effect on bone formation (P1NP): GIP 100 μg or GLP-2 400 μg s.c.", "protocol": "as §3\nas §2, with “Ten” for “Eight”, “are enrolled” for “were enrolled,”, “2.” for “1.”, “measured. The doses of GIP and GLP-2 were selected as discussed in example 2.” for “measured.”"}, "[7]": {"system": "parathyroid hormone (PTH)", "assay": "Serum PTH after s.c. injection alone or in combination, Example 4", "assay_type": "in vivo, human", "conditions": "for time of maximum effect on PTH: GIP 100 μg, GLP-2 400 μg or both s.c.", "protocol": "as §3, with “Blood samples are collected before (−25 and −10) and every 30 minutes after injection (30, 60, 90, 120, 180 and 240 min) injection.” left out\nas §2, with “Ten” for “Eight”, “are enrolled” for “were enrolled,”, “2.” for “1.”, “measured. The doses of GIP and GLP-2 were selected as discussed in example 2.” for “measured.”"}, "[8]": {"system": "serum C-terminal cross-linking telopeptide of type I collagen (CTX)", "assay": "Nocturnal CTX (bone resorption) in postmenopausal women, Example 6", "assay_type": "in vivo, human", "protocol": "Ten healthy postmenopausal women are enrolled and the study includes four study days in randomised order (with a minimum of 1 week washout between study days) where human GIP (hGIP 100 μg), human GLP-2 ([…]), hGIP+hGLP-2 (100 μg+400 μg), or placebo, are injected subcutaneously. The participants arrive in the evening around 9 p.m. (fasted from ˜7 p.m.) and receive the injections at 10 p.m. Blood samples are collected before (−10 and −5 min) and after injection (7, 15, 30, 45, 60, 90, 120, 180 and 240 min). Bone resorption was determined by measurements of serum C-terminal cross-linking telopeptide of type I collagen (CTX; IDS Immunodiagnostic Systems GmbH, Frankfurt am Main, Germany). The doses of GIP and GLP-2 were selected as discussed in example 2."}},
  "data": [
    {"substance": "GLP-1: human glucagon-like peptide-1; which form (SEQ ID NO: 7, 8 or 9) was injected is not stated", "values": [
      {"measurement": "time of maximum effect on bone resorption (CTX)", "setting": "[1]", "result": 120, "unit": "min"},
      {"measurement": "bone resorption (CTX) at maximum effect", "setting": "[1]; 120 min after injection, healthy young people", "result": "74.4±3.7 % of base line"},
      {"measurement": "fasting plasma levels", "setting": "[2]", "result": "0 to 15", "unit": "pmol/L"}
    ]},
    {"substance": "HADGSFSDEMNTILDNLAARDFINWLIQTKITD [GLP-2]", "values": [
      {"measurement": "reduction in bone resorption (CTX)", "setting": "[3]", "result": "~50", "unit": "%"},
      {"measurement": "time of maximum effect on bone resorption (CTX)", "setting": "[3]; Example 1", "result": 180, "unit": "min"},
      {"measurement": "time of maximum effect on bone resorption (CTX)", "setting": "[3]; Example 3", "result": 180, "unit": "min"},
      {"measurement": "bone resorption (CTX) at maximum effect", "setting": "[3]; GLP-2 800 μg s.c., 180 min after administration, Example 3 (completed study)", "result": "60.5±14.1 % of base line"},
      {"measurement": "bone resorption (CTX) at maximum effect", "setting": "[3]; GLP-2 800 μg s.c., 180 min after administration, healthy young men, Example 1", "result": "63.4±3.4 % of base line"},
      {"measurement": "time of maximum effect on bone formation (P1NP)", "setting": "[4]", "result": 45, "unit": "min"},
      {"measurement": "bone formation (P1NP) at maximum effect (reduction)", "setting": "[4]; GLP-2 800 μg s.c., 45 min after injection", "result": "88.1±8.5 % of base line"},
      {"measurement": "time of maximum effect on PTH", "setting": "[5]", "result": 15, "unit": "min"},
      {"measurement": "PTH level at maximum effect", "setting": "[5]; GLP-2 800 μg s.c.", "result": "71.9±13.9 % of basal levels"},
      {"measurement": "time of maximum effect on bone resorption (CTX)", "setting": "CTX", "result": 210, "unit": "min"},
      {"measurement": "bone resorption (CTX) at maximum effect", "setting": "CTX; GLP-2 400 μg s.c. alone, 210 min after injection", "result": "58.2±16.0 % of basal"},
      {"measurement": "time of maximum effect on bone formation (P1NP)", "setting": "[6]", "result": 60, "unit": "min"},
      {"measurement": "bone formation (P1NP) at maximum effect (reduction)", "setting": "[6]; GLP-2 400 μg s.c., 60 min after injection", "result": "88.2±9.4 % of base line"},
      {"measurement": "time of maximum effect on PTH", "setting": "[7]", "result": 45, "unit": "min"},
      {"measurement": "PTH level at maximum effect", "setting": "[7]; GLP-2 400 μg s.c., 45 min after injection", "result": "65.7±16.8 % of basal levels"},
      {"measurement": "nocturnal bone resorption (CTX) compared to placebo", "setting": "[8]; GLP-2 400 μg s.c. at 10 p.m.", "result": "reduced bone resorption during the entire study period"}
    ]},
    {"substance": "YAEGTFISDYSIAMDKIHQQDFVNWLLAQKGKKNDWKHNITQ [GIP]", "values": [
      {"measurement": "reduction in bone resorption (CTX)", "setting": "[3]", "result": "~50", "unit": "%"},
      {"measurement": "time of maximum effect on bone resorption (CTX)", "setting": "[3]; Example 1", "result": 90, "unit": "min"},
      {"measurement": "time of maximum effect on bone resorption (CTX)", "setting": "[3]; Example 3", "result": 90, "unit": "min"},
      {"measurement": "bone resorption (CTX) at maximum effect", "setting": "[3]; GIP 200 μg s.c., 90 min after injection, Example 3 (completed study)", "result": "55.3±17.9 % of base line"},
      {"measurement": "bone resorption (CTX) at maximum effect", "setting": "[3]; GIP 200 μg s.c., 90 min after injection, healthy young men, Example 1", "result": "56.2±11.2 % of base line"},
      {"measurement": "time of maximum effect on bone formation (P1NP)", "setting": "[4]", "result": 30, "unit": "min"},
      {"measurement": "bone formation (P1NP) at maximum effect (increase)", "setting": "[4]; GIP 200 μg s.c., 30 min after injection", "result": "115.1±6.2 % of base line"},
      {"measurement": "time of maximum effect on PTH", "setting": "[5]", "result": 15, "unit": "min"},
      {"measurement": "PTH level at maximum effect", "setting": "[5]; GIP 200 μg s.c.", "result": "71.2±11.4 % of basal levels"},
      {"measurement": "bone resorption (CTX) at maximum effect", "setting": "CTX; GIP 100 μg s.c. alone, 90 min after administration", "result": "57.6±17.9 % of basal"},
      {"measurement": "time of maximum effect on bone resorption (CTX)", "setting": "CTX", "result": 90, "unit": "min"},
      {"measurement": "time of maximum effect on bone formation (P1NP)", "setting": "[6]", "result": 30, "unit": "min"},
      {"measurement": "bone formation (P1NP) at maximum effect (increase)", "setting": "[6]; GIP 100 μg s.c., 30 min after injection", "result": "111.1±9.0 % of base line"},
      {"measurement": "PTH level at maximum effect", "setting": "[7]; GIP 100 μg s.c., 15 min after injection", "result": "73.0±19.2 % of basal levels"},
      {"measurement": "time of maximum effect on PTH", "setting": "[7]", "result": 15, "unit": "min"},
      {"measurement": "nocturnal bone resorption (CTX) compared to placebo", "setting": "[8]; GIP 100 μg s.c. at 10 p.m.", "result": "reduced bone resorption was seen from 30 min to 120 min"}
    ]}
  ]
}
